Experimental findings from US9060952B2, “Synergistic preservative blends” (LONZA LTD., priority 2008, dated 2015) are described below.

Where two headings read alike, the source gives them in different places.

Common to all, as to experiment: Minimum inhibitory concentration (MIC), broth dilution
In general terms: Dilution methods test growth across graded concentrations, often in twofold steps.

For one assay, the system named is S. aureus ATCC 6538. Also on record: species or system Staphylococcus aureus. Conditions: for MIC: Staphylococcus aureus. On the procedure: (§1) Minimum inhibitory concentrations (MIC) were determined for individual components and binary formulations as follows. Individual bacterial suspensions of S. aureus (gram positive), E. coli and P. aeruginosa (both gram negative) and individual fungal suspensions of C. albicans and A. niger were prepared as described in Example 1. Each individual suspension was standardized with PBDW to yield a ˜10^8 CFU/mL or ˜10^7 cells/mL for the individual bacteria and fungi, respectively.
(§2) The individual components and binary formulations were diluted in either DI water or propylene glycol (as appropriate for solubility) to yield a 10,000 ppm total starting active solution. From the 10,000 ppm solution, a 1:9 dilution was made in sterile Nutrient Broth to yield a 1,000 ppm active solution. Five mL of the 1,000 ppm dilution was transferred to five mL of sterile Nutrient Broth (NB) to yield a 500 ppm active solution. This dilution scheme was repeated down to 3.90 ppm active. The same dilutions were made in sterile Sabouraud Dextrose Broth (SDB) for the fungal MIC testing. The series of nine active solutions (3.9 ppm˜1000 ppm) was prepared for each of the five microorganisms to be tested.
(§3) From the E. coli suspension, 0.1 mL was added to each of the nine, 5-mL active solutions in NB. Each tube was mixed thoroughly. This was repeated for each of the bacterial suspensions. Similarly, 0.1 mL of the C. albicans suspension was added to each of the nine, 5-mL active solutions in SDB. This was repeated with A. niger in a separate set of dilutions. Each tube was mixed thoroughly. Controls were prepared for each organism by inoculating 5 mL of NB or SDB, as appropriate. All three sets of bacterial tubes were incubated at 35° C. for 48 hours and the two sets of fungal tubes were incubated at 30° C. for 72 and 120 hours. At the end of the incubation period, the tubes were mixed and visually inspected for turbidity compared to the control. The lowest concentration with a lack of turbidity was recorded as the Minimum Inhibitory Concentration (MIC).
(§4) The synergism value is (QA/Qa+QB/Qb). QA is the concentration of component A in the mixture, Qa is the concentration of component A applied singly, QB is the concentration of component B in the mixture, Qb is the concentration of component B applied singly. When the synergism value is less than one, the mixture is synergistic. Values for (QA/Qa+QB/Qb) of 1 and greater than 1 represent an additive effect and an antagonistic effect, respectively.

A further assay has as its system P. aeruginosa ATCC 9027. Also on record: species or system Pseudomonas aeruginosa. To be noted: for MIC: Pseudomonas aeruginosa. On the procedure:
as §1, §2, §3, §4

A further assay deals with E. coli ATCC 8739. Details: species or system Escherichia coli. To be noted: for MIC: Escherichia coli. On the procedure:
as §1, §2, §3, §4

The test system of the next assay is A. niger ATCC 16404. Details: species or system Aspergillus niger. The procedure:
as §1, §2
(§5) From the E. coli suspension, 0.1 mL was added to each of the nine, 5-mL active solutions in NB. […] The lowest concentration with a lack of turbidity was recorded as the Minimum Inhibitory Concentration (MIC). […]

Another assay deals with C. albicans ATCC 10231. Also on record: species or system Candida albicans. On the procedure:
as §1, §2, §5

With `CC(=O)C1C(=O)C=C(C)OC1=O` (stereo not shown) [Dehydroacetic acid], the MIC was 500 µg/mL in the assay on S. aureus ATCC 6538 (ATCC6538, read-out: Qb, concentration of component B applied singly (MIC)); 500 µg/mL in the assay on P. aeruginosa ATCC 9027 (ATCC9027, read-out: Qb, concentration of component B applied singly (MIC)); 500 µg/mL in the assay with E. coli ATCC 8739 (ATCC8739, read-out: Qb, concentration of component B applied singly (MIC)).

Turning to `CCCCCCCCCCCO` [Undecanol], the MIC with S. aureus ATCC 6538 (ATCC6538, S. aureus, read-out: Qa, concentration of component A applied singly (MIC)) was more than 1000 µg/mL; in the assay on P. aeruginosa ATCC 9027 (ATCC9027, P. aeruginosa, read-out: Qa, concentration of component A applied singly (MIC)), more than 1000 µg/mL; in the assay with E. coli ATCC 8739 (ATCC8739, E. coli, read-out: Qa, concentration of component A applied singly (MIC)), more than 1000 µg/mL.

Turning to `CCCCCCC(O)CO` (stereo not shown) [Caprylyl Glycol], the entries for the “Qa, concentration of component A applied singly (MIC)” value in the assay with S. aureus ATCC 6538 (S. aureus), with P. aeruginosa ATCC 9027 (P. aeruginosa) and in the assay on E. coli ATCC 8739 (E. coli) were more than 1000 ppm, more than 1000 ppm and 1000 ppm, respectively.

Turning to `Cc1cc(CC(C)CC(C)(C)C)n(O)c(=O)c1.NCCO` (stereo not shown) [Piroctone Olamine], the “Qb, concentration of component B applied singly (MIC)” value in the assay with S. aureus ATCC 6538 (S. aureus), in the assay on P. aeruginosa ATCC 9027 (P. aeruginosa), in the assay with E. coli ATCC 8739 (E. coli), with A. niger ATCC 16404 and in the assay with C. albicans ATCC 10231 was 62.5 ppm each time.

In the case of `Cn1sccc1=O` [Methylisothiazolinone], the “Qa, concentration of component A applied singly (MIC)” value in the assay on S. aureus ATCC 6538 (S. aureus) came out at 250 ppm; in the assay with P. aeruginosa ATCC 9027 (P. aeruginosa), 62.5 ppm; in the assay on E. coli ATCC 8739 (E. coli), 62.5 ppm; with A. niger ATCC 16404, 500 ppm; in the assay with C. albicans ATCC 10231, 250 ppm.
